Results as given in publication PMC10030565, “Ubiquitous occurrence of a dimethylsulfoniopropionate ABC transporter in abundant marine bacteria” (The ISME Journal, 2023).

What was measured:
[1] = molecular target: DmpX (SBP encoded by SPO2441) (Ruegeria pomeroyi, UniProt Q5LQP7); experiment: biochemical; type: binding, Ruegeria pomeroyi DSS-3; parameters: key to Dissociation constant (Kd): -: not detectable; details: ITC; for binding affinity (in words): DMSP analogues compared to DMSP; for Dissociation constant (Kd): dash = not detectable
From the text: (§1) The genes encoding SBPs from R. pomeroyi DSS-3 or R. nubinhibens ISM were amplified from the genome of R. pomeroyi DSS-3 or R. nubinhibens ISM by PCR using FastPfu DNA polymerase (TransGen Biotech, China). The dmpX homologue from P. sp. strain HTCC7211 (locus tag HTCC7211_00013840) was synthesized by the Beijing Genomics Institute (China). The related genes were then cloned into the NdeI/XhoI restriction sites of the pET-22b vector (Novagen, Germany) with a C-terminal His tag. Point mutations in DmpX were introduced using the PCR-based method and verified by DNA sequencing. The SBPs and corresponding mutant forms were produced in E. coli BL21 (DE3). The cells were cultured in the LB medium with 0.1 mg/ml ampicillin at 37 °C to an OD600 of 0.8–1.0 and then induced at 18 °C for 16 h with 0.5 mM isopropyl-β-D-thiogalactopyranoside (IPTG). After induction, cells were collected by centrifugation, resuspended in the lysis buffer (50 mM Tris-HCl, 100 mM NaCl, 0.5% glycerol, pH 8.0), and lysed by a pressure crusher. The proteins were first purified by affinity chromatography on a Ni^2+-NTA column (GE Healthcare, US), and then fractionated by gel filtration on a Superdex G75 column (GE healthcare, US).
(§2) Isothermal titration calorimetry (ITC) measurements were performed at 25 °C using a MicroCal iTC200 system (GE Healthcare, US) or MicroCal PEAQ-ITC system (Malvern Panalytical, UK). The sample cell was loaded with 280 μl of protein sample (30–100 μM), and the reference cell contained distilled water. The syringe was filled with 40 μl of substrates (100 μM–1 mM). The proteins and substrates were kept in the same buffer containing 10 mM Tris-HCl (pH 8.0) and 100 mM NaCl.

RnDmpX Tyr200Phe mutant = experiment: ITC titration of DMSP into RnDmpX Tyr200Phe mutant; type: binding, Roseovarius nubinhibens ISM; details: Tyr200 mutated to Phe
From the text: as §1
(§3) Isothermal titration calorimetry (ITC) measurements were performed at 25 °C using a MicroCal iTC200 system (GE Healthcare, US) or MicroCal PEAQ-ITC system (Malvern Panalytical, UK). […]

SBP encoded by SPOA0231 = experiment: ITC titration of DMSP into recombinant SBP encoded by SPOA0231; type: binding, Ruegeria pomeroyi DSS-3
From the text: as §1, §3

[2] = tested on: TmoX (encoded by SPO1548); parameters: method as in PMID 24550299, PMID 26283766; details: cited from earlier work
SBP encoded by SPO1131 = experiment: ITC titration of DMSP into recombinant SBP encoded by SPO1131; type: binding, Ruegeria pomeroyi DSS-3
From the text: as §1, §3

RnDmpX = RnDmpX (Roseovarius nubinhibens, UniProt A3SME7); experiment: ITC titration of DMSP into recombinant RnDmpX; type: binding, Roseovarius nubinhibens ISM
From the text: as §1, §3

RnDmpX Tyr200Ala mutant = experiment: ITC titration of DMSP into RnDmpX Tyr200Ala mutant; type: binding, Roseovarius nubinhibens ISM; details: Tyr200 mutated to Ala
From the text: as §1, §3

DmpX^7211 = DmpX^7211 (Candidatus Pelagibacter sp. HTCC7211, UniProt B6BQI1); experiment: ITC titration of substrates into recombinant DmpX^7211; type: binding; parameters: key: -: not detectable; details: dash = not detectable
From the text: as §1, §2

[3] = tested on: R. pomeroyi DSS-3 ΔdmpXWV::Gm mutant; experiment: Uptake of 14C-labeled DMSP, ΔdmpXWV::Gm mutant; type: cell-based, Ruegeria pomeroyi DSS-3; details: for Uptake rate: ΔdmpXWV::Gm, 5 min, 30 °C, mean ± S.D. n = 3
Description: Bacterial cell numbers used for normalization of uptake rates were determined by flow cytometry [41]. 1 ml culture was fixed with a final concentration of 0.5% (vol/vol) glutaraldehyde (Electron microscopy grade, BDH, AE) for 30 min at 4 °C, snap frozen in liquid nitrogen, and stored at –80 °C. Samples were thawed at 37 °C for 5 min, stained with SYBR gold (Invitrogen, US) (final concentration 10^-4 of commercial stock) for 10 min at 60 °C in the dark. 75 to 200-fold sample dilutions in sterile TE buffer (10 mM Tris-HCl, 1 mM EDTA, pH 8.0) were counted in analytical triplicates on a CytoFLEX flow cytometer (Beckman Coulter, UK) at a flow rate of 30 µl min^-1 for 60 sec. The instrument was equipped with a 50 mW 488 nm solid-state diode laser with standard filters and the discriminator set to 525 nm (green fluorescence) (Fig. S1).

[4] = tested on: R. pomeroyi DSS-3 complemented mutant ΔdmpXWV::Gm; experiment: Uptake of 14C-labeled DMSP, complemented ΔdmpXWV::Gm mutant; type: cell-based, Ruegeria pomeroyi DSS-3; details: for Uptake rate: complemented mutant ΔdmpXWV::Gm, 5 min, 30 °C, mean ± S.D. n = 3
From the text: To create the ΔdmpXWV knockout mutant regions of homology at the 5′ and 3′ ends of dmpXWV were amplified, alongside the gentamicin cassette from the p34s-Gm plasmid. Amplified DNA fragments were assembled into linearised pk18mobsacB using the HiFi assembly kit (New England Biolabs) according to the manufacturer’s instructions. To construct the complementation plasmid, dmpXWV was cloned into linearised pBBR1McS-km using the HiFi assembly kit. Plasmids were electroporated into competent Escherichia coli S17.1 λpir and conjugated into R. pomeroyi DSS-3. The knockout mutant was selected onto minimal media plates containing gentamicin (10 µg/ml), with resultant colonies screened for kanamycin resistance. Kanamycin-sensitive clones were PCR screened and products sequenced to confirm a double crossover. The complemented mutant strain was selected on MB plates containing gentamicin (10 µg/ml) and kanamycin (80 µg/ml), and colonies confirmed by PCR screening and sequencing.
(§4) Triplicates of 1 µl ^14C:^12C-DMSP in 3 ml scintillation fluid (EcoLume Liquid Scintillation Cocktail, MP Biomedical, US) were measured on a liquid scintillation analyzer (Tri-Carb 2800TR, Perkin Elmer, UK) after overnight equilibration.
(§5) A single colony of R. pomeroyi DSS-3 WT, ΔdmpXWV mutant, or complemented ΔdmpXWV mutant was inoculated into 5 ml of marine broth medium (MB) and grown overnight at 30 °C under constant shaking (170 rpm). 1 ml preculture was inoculated into 50 ml MB and grown at 30 °C with shaking (130 rpm) until an OD540 of ~0.5-0.7 was reached, then used for DMSP uptake assays.
Due to a relatively low radiochemical and mid-millimolar range molar concentration of the ^14C:^12C-DMSP stock, we could not conduct uptake kinetics experiments. Instead, we used three DMSP concentrations (50, 150, and 300 µM) and added them to 3 ml of cultures in biological triplicates. Cells were incubated at 30 °C with shaking (130 rpm) for 5 min, filtered onto 0.2 µm pore size Supor filters (∅ 25 mm, Pall Corporation, US), and washed 3x with 1 ml MB medium. Wet filters were transferred to 6 ml scintillation vials and 3 ml EcoLume Liquid Scintillation Cocktail added. After equilibration overnight, samples were measured on a Tri-Carb 2800TR liquid scintillation analyzer. […]
(§6) Bacterial cell numbers used for normalization of uptake rates were determined by flow cytometry. […] 75 to 200-fold sample dilutions in sterile TE buffer (10 mM Tris-HCl, 1 mM EDTA, pH 8.0) were counted in analytical triplicates on a CytoFLEX flow cytometer (Beckman Coulter, UK) at a flow rate of 30 µl min^-1 for 60 sec. The instrument was equipped with a 50 mW 488 nm solid-state diode laser with standard filters and the discriminator set to 525 nm (green fluorescence) (Fig. S1).

R. pomeroyi DSS-3 WT = experiment: Uptake of 14C-labeled DMSP, wild-type; type: cell-based, Ruegeria pomeroyi DSS-3; details: 5 min, 30 °C, mean ± S.D. n = 3
Description: as §4, §5
Due to a relatively low radiochemical and mid-millimolar range molar concentration of the ^14C:^12C-DMSP stock, we could not conduct uptake kinetics experiments. Instead, we used three DMSP concentrations (50, 150, and 300 µM) and added them to 3 ml of cultures in biological triplicates. Cells were incubated at 30 °C with shaking (130 rpm) for 5 min, filtered onto 0.2 µm pore size Supor filters (∅ 25 mm, Pall Corporation, US), and washed 3x with 1 ml MB medium. Wet filters were transferred to 6 ml scintillation vials and 3 ml EcoLume Liquid Scintillation Cocktail added. After equilibration overnight, samples were measured on a Tri-Carb 2800TR liquid scintillation analyzer. Cells fixed in 2% (vol/vol) freshly prepared paraformaldehyde solution for >15 min at 4 °C in the dark prior to radioisotope addition were used for background correction. Uptake rates were normalized by cell number.
as §6

Sequence of DmpX^7211 (B6BQI1 27-337 limits assumed): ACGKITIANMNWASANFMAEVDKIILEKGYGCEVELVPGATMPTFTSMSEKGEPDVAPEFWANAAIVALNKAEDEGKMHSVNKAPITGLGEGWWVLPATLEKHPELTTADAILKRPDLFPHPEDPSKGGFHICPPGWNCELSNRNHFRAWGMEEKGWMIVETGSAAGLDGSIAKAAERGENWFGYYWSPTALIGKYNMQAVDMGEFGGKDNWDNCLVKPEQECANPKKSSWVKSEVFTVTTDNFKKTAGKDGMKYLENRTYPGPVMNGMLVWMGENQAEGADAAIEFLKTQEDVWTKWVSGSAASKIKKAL
Sequence of DmpX (SBP encoded by SPO2441) (Q5LQP7 entry or part of it): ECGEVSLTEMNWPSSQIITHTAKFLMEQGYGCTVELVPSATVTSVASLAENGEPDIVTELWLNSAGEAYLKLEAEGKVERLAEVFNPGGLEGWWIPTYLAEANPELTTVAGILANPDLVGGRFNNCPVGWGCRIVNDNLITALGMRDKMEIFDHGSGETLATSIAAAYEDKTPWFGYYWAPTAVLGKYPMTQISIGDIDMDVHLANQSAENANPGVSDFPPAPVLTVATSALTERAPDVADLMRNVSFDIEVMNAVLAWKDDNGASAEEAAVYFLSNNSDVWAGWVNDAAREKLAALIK
Sequence of RnDmpX (A3SME7 entry or part of it): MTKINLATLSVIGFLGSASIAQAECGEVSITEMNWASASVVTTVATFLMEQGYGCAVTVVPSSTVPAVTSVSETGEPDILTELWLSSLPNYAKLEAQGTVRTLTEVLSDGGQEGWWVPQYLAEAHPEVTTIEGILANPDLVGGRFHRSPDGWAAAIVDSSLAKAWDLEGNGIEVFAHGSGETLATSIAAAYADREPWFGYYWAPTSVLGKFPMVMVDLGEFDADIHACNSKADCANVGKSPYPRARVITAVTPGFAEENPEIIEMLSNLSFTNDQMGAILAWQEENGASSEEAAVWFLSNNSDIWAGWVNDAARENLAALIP

C[S+](C)CCC(=O)[O-] [DMSP, Dimethylsulfoniopropionate]
Kd ([1]; 25 °C, 10 mM Tris-HCl pH 8.0, 100 mM NaCl, SPO2441 (DmpX), read-out: Dissociation constant (Kd)): 1100 nM
binding affinity for DMSP (in words) (RnDmpX Tyr200Phe mutant): abolished
high binding affinity for DMSP (in words) (SBP encoded by SPOA0231): did not
binding affinity to DMSP (in words) [2]: does not show any binding affinity
high binding affinity for DMSP (in words) (SBP encoded by SPO1131): did not
Kd (RnDmpX): 474 nM
binding affinity for DMSP (in words) (RnDmpX Tyr200Ala mutant): abolished

C[N+](C)(C)CC(=O)O [GBT, glycine betaine]
Dissociation constant (Kd) (DmpX^7211): -
binding affinity (in words) [1]: little binding affinity
Dissociation constant (Kd) ([1]; SPO2441 (DmpX)): -

C[N+](C)(C)[O-] [TMAO, trimethylamine N-oxide]
Dissociation constant (Kd) (DmpX^7211): -
binding affinity (in words) [1]: little binding affinity
Dissociation constant (Kd) ([1]; SPO2441 (DmpX)): -

C[S+](C)CCC(=O)[O-] [^14C-DMSP, [1-^14C]DMSP]
reduction of uptake in the mutant in comparison to the wild-type ([3]; 50 μM DMSP, p < 0.001): ~ 5 times
decrease of uptake in the mutant in comparison to the wild-type ([3]; 300 μM DMSP, p < 0.001): ~ 3 times
Uptake rate ([3]; DMSP concentration 50 µM): 0.522 ± 0.040 fmol cell^-1 min^-1
Uptake rate ([3]; DMSP concentration 300 µM): 1.344 ± 0.150 fmol cell^-1 min^-1
restoration of import by complementation with dmpXWV (in words) ([4]; complemented mutant versus ΔdmpXWV::Gm): partly restore
Uptake rate ([4]; DMSP concentration 50 µM): 0.946 ± 0.299 fmol cell^-1 min^-1
Uptake rate ([4]; DMSP concentration 150 µM): 1.221 ± 0.159 fmol cell^-1 min^-1
Uptake rate ([4]; DMSP concentration 300 µM): 1.893 ± 0.084 fmol cell^-1 min^-1
Uptake rate (R. pomeroyi DSS-3 WT; DMSP concentration 50 µM): 1.852 ± 0.100 fmol cell^-1 min^-1
Uptake rate (R. pomeroyi DSS-3 WT; DMSP concentration 150 µM): 2.267 ± 0.189 fmol cell^-1 min^-1
Uptake rate (R. pomeroyi DSS-3 WT; DMSP concentration 300 µM): 3.095 ± 0.081 fmol cell^-1 min^-1

C[N+](C)(C)CC(O)CC(=O)[O-] (centres unmarked) [carnitine]
Dissociation constant (Kd) (DmpX^7211): -
binding affinity (in words) [1]: little binding affinity
Dissociation constant (Kd) ([1]; SPO2441 (DmpX)): -

C[N+](C)(C)CCO [choline]
binding affinity (in words) [1]: little binding affinity
Dissociation constant (Kd) ([1]; SPO2441 (DmpX)): -
